From ChEMBL document CHEMBL1146730, “New pyrazolo[3,4-d]pyrimidines endowed with A431 antiproliferative activity and inhibitory properties of Src phosphorylation” (Bioorg Med Chem Lett, 2004)

Experiments:
A-431 [1] = assay: Tested for antiproliferative activity against human A431 cells; assay type: functional, cell-based
A-431 [2] = assay: Inhibitory effect on phospho-Src/nonphospho after EGF (100 uM) stimulation of A431 cells (21); conditions: Homo sapiens
A-431 [3] = assay: Inhibitory effect on phospho-Src (Tyr416) after EGF (100 uM) stimulation of A431 cells (38); conditions: Homo sapiens
A-431 [4] = assay: cells; conditions: Homo sapiens
Description: Inhibitory effect on nonphospho-Src after EGF (100 uM) stimulation of A431 cells (control=178)

Row | Structure (SMILES) | IC50 (A-431 [1]) [µM] | also measured
1 | COc1cc2ncnc(Nc3cccc(Cl)c3)c2cc1OC [TYRPHOSTIN AG-1478] | 20 | 
2 | CSc1nc(N2CCOCC2)c2cnn(CC(Cl)c3ccccc3)c2n1 (configuration not stated) |  | IC50 (A-431 [2]): 24 µM; IC50 (A-431 [3]): 34 µM
3 | CC(C)(C)n1nc(-c2ccc(Cl)cc2)c2c(N)ncnc21 |  | IC50 (A-431 [4]): 131 µM; IC50 (A-431 [2]): 17 µM; IC50 (A-431 [3]): 22 µM
4 | CCCCNc1nc(SC)nc2c1cnn2CC(Cl)c1ccccc1 (configuration not stated) | 27 | 
5 | CSc1nc(N2CCOCC2)c2cnn(/C=C/c3ccccc3)c2n1 | 36 | 
6 | CCSc1nc(NCc2ccccc2)c2cnn(CC(Cl)c3ccccc3)c2n1 (configuration not stated) | 124 | 
7 | CCCCNc1ncnc2c1cnn2/C=C/c1ccccc1 | 91 | 
8 | CCCCNc1nc(SCC)nc2c1cnn2CC(Cl)c1ccccc1 (configuration not stated) |  | IC50 (A-431 [2]): 33 µM; IC50 (A-431 [3]): 53 µM
9 | CCSc1nc(N2CCCCC2)c2cnn(CC(Cl)c3ccccc3)c2n1 (configuration not stated) | 176 | 
10 | CCSc1nc(N2CCOCC2)c2cnn(/C=C/c3ccccc3)c2n1 | 50 | 
11 | C(=C\n1ncc2c(N3CCCC3)ncnc21)/c1ccccc1 | 63 | 
12 | CSc1nc(N2CCCCC2)c2cnn(/C=C/c3ccccc3)c2n1 | 54 | 
13 | CSc1nc(NCc2ccccc2)c2cnn(CC(Cl)c3ccccc3)c2n1 (configuration not stated) |  | IC50 (A-431 [2]): 21 µM; IC50 (A-431 [3]): 32 µM
14 | C(=C\n1ncc2c(N3CCOCC3)ncnc21)/c1ccccc1 | 59 | 
15 | CSc1nc(NCc2ccccc2)c2cnn(/C=C/c3ccccc3)c2n1 | 40 | 
16 | CCCNc1ncnc2c1cnn2/C=C/c1ccccc1 | 61 | 
17 | C(=C\n1ncc2c(N3CCCCC3)ncnc21)/c1ccccc1 | 69 | 
